For 3 compounds, Activity results are on record in ChEMBL document CHEMBL5715954, “Silencing c-Myc translation as a therapeutic strategy through targeting PI3Kδ and CK1ε in hematological malignancies” (Blood, 2017).

Set-up in all cases: scale not given: the % may be the effect or the level left
In assay [1] the target is Serine/threonine-protein kinase B-raf (Homo sapiens) (UniProt P15056). In words: Inhibition of human BRAF assessed as enzyme activity at 1 uM using MEK1 (K97R) as substrate preincubated for 20 mins followed by [gamma-33P]-ATP addition and measured after 120 mins by radiometric Hot-SpotSM Kinase assay relative to control.
Chain of Serine/threonine-protein kinase B-raf (Homo sapiens) (P15056 whole entry): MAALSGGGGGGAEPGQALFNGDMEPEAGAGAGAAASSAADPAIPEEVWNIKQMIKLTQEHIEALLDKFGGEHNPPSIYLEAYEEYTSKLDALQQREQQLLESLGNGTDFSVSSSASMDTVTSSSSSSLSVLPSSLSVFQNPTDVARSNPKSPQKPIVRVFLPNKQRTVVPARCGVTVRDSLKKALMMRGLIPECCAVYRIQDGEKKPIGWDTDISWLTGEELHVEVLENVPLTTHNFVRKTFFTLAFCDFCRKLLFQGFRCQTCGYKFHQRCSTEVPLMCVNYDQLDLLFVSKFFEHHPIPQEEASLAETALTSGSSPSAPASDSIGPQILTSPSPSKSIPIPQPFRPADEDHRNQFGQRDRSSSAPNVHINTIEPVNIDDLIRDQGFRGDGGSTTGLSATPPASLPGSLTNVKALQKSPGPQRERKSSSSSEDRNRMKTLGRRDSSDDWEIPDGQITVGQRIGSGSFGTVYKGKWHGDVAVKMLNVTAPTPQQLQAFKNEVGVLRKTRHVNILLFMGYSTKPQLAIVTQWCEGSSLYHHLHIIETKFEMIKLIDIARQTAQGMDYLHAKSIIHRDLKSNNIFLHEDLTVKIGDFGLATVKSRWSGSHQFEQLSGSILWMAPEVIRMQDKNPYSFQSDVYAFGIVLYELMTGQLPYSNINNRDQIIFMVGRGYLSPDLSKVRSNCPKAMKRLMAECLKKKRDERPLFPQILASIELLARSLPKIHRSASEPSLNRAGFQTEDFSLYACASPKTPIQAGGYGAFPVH
Assay [2] deals with Tyrosine-protein kinase CSK (Homo sapiens) (UniProt P41240). In words: Inhibition of human CSK assessed as enzyme activity at 1 uM using poly[Glu:Tyr] (4:1) as substrate preincubated for 20 mins followed by [gamma-33P]-ATP addition and measured after 120 mins by radiometric Hot-SpotSM Kinase assay relative to control.
Chain of Tyrosine-protein kinase CSK (Homo sapiens) (P41240 2-450 limits assumed): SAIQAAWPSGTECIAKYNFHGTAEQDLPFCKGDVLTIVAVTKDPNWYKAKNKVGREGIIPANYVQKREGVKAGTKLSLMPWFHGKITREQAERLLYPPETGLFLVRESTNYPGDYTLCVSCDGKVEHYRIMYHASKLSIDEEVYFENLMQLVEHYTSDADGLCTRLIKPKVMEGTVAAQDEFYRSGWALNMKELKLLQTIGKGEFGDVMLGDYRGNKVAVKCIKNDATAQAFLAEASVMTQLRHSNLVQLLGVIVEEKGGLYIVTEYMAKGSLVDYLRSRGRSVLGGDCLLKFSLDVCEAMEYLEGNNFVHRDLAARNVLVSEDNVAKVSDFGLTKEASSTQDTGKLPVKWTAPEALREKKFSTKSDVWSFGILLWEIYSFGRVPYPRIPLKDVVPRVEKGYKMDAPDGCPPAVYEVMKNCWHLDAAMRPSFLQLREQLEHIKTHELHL
For assay [3], the target named is T1, Dual specificity tyrosine-phosphorylation-regulated kinase 2 (Homo sapiens) (UniProt Q92630).
T1 sequence (whole entry): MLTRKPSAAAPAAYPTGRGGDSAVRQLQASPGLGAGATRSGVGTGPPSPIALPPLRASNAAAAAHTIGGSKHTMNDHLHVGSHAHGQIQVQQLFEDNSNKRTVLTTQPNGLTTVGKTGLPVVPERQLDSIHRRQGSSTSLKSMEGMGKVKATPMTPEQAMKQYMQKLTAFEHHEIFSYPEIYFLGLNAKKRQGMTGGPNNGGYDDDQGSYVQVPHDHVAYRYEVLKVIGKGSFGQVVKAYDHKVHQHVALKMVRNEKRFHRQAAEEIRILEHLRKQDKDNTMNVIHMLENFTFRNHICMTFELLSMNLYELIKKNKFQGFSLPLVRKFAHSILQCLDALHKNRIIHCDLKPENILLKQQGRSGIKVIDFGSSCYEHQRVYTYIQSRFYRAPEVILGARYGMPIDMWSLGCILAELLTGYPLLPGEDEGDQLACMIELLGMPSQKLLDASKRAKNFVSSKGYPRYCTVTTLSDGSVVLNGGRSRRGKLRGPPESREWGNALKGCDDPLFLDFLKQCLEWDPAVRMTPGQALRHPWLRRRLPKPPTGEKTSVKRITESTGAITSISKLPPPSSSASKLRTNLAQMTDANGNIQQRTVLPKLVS
In words: Inhibition of human DYRK2 assessed as enzyme activity at 1 uM using RRRFRPASPLRGPPK as substrate preincubated for 20 mins followed by [gamma-33P]-ATP addition and measured after 120 mins by radiometric Hot-SpotSM Kinase assay relative to control.

Assay [4] has as its target T2, Mitogen-activated protein kinase kinase kinase 6 (Homo sapiens) (UniProt O95382).
T2 sequence (whole entry): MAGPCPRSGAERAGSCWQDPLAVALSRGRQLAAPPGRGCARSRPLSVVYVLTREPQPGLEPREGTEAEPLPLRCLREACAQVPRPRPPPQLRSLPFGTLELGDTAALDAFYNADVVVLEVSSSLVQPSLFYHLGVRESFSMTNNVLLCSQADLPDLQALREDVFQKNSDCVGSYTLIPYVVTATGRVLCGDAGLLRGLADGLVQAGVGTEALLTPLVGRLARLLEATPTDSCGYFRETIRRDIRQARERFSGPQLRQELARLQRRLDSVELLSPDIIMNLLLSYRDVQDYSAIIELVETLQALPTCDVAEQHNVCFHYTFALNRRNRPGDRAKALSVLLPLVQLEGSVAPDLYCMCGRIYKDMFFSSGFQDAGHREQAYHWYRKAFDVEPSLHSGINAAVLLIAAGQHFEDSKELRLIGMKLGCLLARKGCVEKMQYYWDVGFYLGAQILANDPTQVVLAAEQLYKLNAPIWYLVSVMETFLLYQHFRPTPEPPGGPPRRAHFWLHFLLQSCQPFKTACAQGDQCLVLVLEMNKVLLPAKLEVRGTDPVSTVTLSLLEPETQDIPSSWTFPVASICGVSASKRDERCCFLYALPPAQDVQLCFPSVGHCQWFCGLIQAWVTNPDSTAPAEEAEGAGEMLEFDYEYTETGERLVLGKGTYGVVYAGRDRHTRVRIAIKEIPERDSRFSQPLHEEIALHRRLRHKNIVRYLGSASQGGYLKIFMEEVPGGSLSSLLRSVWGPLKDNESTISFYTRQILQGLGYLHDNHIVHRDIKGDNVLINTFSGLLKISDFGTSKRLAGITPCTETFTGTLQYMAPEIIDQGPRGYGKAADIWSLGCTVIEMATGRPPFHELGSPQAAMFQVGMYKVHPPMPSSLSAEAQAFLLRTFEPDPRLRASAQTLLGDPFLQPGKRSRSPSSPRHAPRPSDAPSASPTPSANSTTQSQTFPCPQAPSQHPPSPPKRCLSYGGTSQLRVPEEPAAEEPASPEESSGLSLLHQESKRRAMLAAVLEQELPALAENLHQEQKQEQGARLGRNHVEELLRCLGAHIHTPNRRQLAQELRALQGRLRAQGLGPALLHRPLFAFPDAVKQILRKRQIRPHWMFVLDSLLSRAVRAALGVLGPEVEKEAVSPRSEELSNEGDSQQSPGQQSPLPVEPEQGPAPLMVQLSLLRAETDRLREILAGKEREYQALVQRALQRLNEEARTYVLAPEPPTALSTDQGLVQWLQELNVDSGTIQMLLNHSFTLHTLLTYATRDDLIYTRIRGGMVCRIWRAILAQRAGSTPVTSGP
In words: Inhibition of human MEKK6 assessed as enzyme activity at 1 uM using myelin basic protein as substrate preincubated for 20 mins followed by [gamma-33P]-ATP addition and measured after 120 mins by radiometric Hot-SpotSM Kinase assay relative to control.

Assay [5] concerns the target Receptor-interacting serine/threonine-protein kinase 2 (Homo sapiens) (UniProt O43353). In words: Inhibition of human RIPK2 assessed as enzyme activity at 1 uM using myelin basic protein as substrate preincubated for 20 mins followed by [gamma-33P]-ATP addition and measured after 120 mins by radiometric Hot-SpotSM Kinase assay relative to control.
In assay [6] the target is T3, Serine/threonine-protein kinase Sgk2 (Homo sapiens) (UniProt Q9HBY8).
T3 sequence (whole entry): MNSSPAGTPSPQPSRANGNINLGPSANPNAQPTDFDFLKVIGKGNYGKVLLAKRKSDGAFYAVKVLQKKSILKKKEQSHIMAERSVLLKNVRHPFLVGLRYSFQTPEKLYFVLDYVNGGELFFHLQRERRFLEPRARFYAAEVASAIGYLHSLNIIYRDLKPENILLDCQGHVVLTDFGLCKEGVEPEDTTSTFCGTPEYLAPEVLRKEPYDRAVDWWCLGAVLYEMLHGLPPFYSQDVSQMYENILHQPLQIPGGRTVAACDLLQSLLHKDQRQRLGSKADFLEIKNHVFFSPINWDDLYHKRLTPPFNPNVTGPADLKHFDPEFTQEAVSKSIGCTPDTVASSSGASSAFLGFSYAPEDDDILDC
In words: Inhibition of human SGK2 assessed as enzyme activity at 1 uM using KGSGSGRPRTSSFAEG as substrate preincubated for 20 mins followed by [gamma-33P]-ATP addition and measured after 120 mins by radiometric Hot-SpotSM Kinase assay relative to control.

Chain of Receptor-interacting serine/threonine-protein kinase 2 (Homo sapiens) (O43353 whole entry): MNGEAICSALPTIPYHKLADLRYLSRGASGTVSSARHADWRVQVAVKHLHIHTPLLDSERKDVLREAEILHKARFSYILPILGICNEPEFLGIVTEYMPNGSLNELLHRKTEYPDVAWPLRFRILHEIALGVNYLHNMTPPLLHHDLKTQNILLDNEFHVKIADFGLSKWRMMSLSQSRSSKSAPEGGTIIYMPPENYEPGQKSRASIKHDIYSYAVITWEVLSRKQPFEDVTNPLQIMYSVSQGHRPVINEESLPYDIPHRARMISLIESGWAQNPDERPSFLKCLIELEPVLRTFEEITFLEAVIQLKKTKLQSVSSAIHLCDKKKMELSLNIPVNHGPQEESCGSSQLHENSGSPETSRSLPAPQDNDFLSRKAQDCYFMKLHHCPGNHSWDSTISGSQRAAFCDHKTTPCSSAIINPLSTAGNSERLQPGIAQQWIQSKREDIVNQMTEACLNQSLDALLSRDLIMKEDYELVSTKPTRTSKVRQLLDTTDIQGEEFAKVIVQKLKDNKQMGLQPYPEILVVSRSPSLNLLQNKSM

Turning to `C[C@H](Nc1ncnc2nc[nH]c12)c1cc2cccc(Cl)c2c(=O)n1-c1ccccc1`, the Activity in assay [1] was found to be 85.9%; in assay [2] it was 97.9%; in assay [3], 99%; in assay [4], 97.5%; in assay [5] it was 92.2%; in assay [6] it was 98.8%.

Turning to `CC[C@H](Nc1ncnc2[nH]cnc12)c1nc2cccc(F)c2c(=O)n1-c1ccccc1`, the Activity in assay [1] is 87.6%; in assay [2], 99.1%; in assay [3], 99%; in assay [4] it was 96.6%; in assay [5] it was 96.5%; in assay [6] it was 91.9%.

For `CC(C)Oc1ccc(-c2nn([C@@H](C)c3oc4ccc(F)cc4c(=O)c3-c3cccc(F)c3)c3ncnc(N)c23)cc1F` [UMBRALISIB], the Activity worked out at 92.2% in assay [1]; 94.1% in assay [2]; 99.2% in assay [3]; 93.9% in assay [4]; 94.2% in assay [5]; 90.9% in assay [6].
